Laboratory results taken from ChEMBL document CHEMBL6127050, “Simultaneous inhibition of FLT3 and HDAC by novel 6-ethylpyrazine-2-Carboxamide derivatives provides therapeutic advantages in acute myelocytic leukemia” (Eur J Med Chem, 2024).
Each block holds one molecule with its values, some of them ahead of it. Active and inactive are the calls of the source. No cut-off for these calls is given here.

Assays:
[1] = target: T1, Histone deacetylase (Homo sapiens) (UniProt Q13547+O15379+Q9UBN7+Q92769+Q9UQL6+Q8WUI4+Q9BY41+Q96DB2+P56524+Q9UKV0+Q969S8); test: Inhibition of HDAC in human HeLa nuclear extract using Boc-Lys(Ac)-AMC as substrate at 200 nM incubated for 0.5 hrs by microplate reader analysis relative to control; assay type: cell-free
MOLM-13 [2] = test: Antitumor activity against human MOLM-13 cells xenografted BALB/c mouse assessed as reduction in tumor volume at 10 mg/kg, IG qd administered 5 days a week and measured on day 9 in presence of vorinostat; assay type: functional, organism-based; conditions: time 9.0 day
MOLM-13 [3] = test: Induction of apoptosis in human MOLM-13 cells assessed as viable cells at 0.1 uM incubated for 48 hrs in presence of vorinostat by Annexin V-FITC staining based flow cytometry analysis (reference value: 94.5 %); assay type: functional; conditions: read-out: Activity
K562 = test: Antiproliferative activity against human K562 cells incubated for 48 hrs; conditions: K562, 48 h
MOLM-13 [4] = test: Induction of apoptosis in human MOLM-13 cells assessed as necrotic at 0.1 uM incubated for 48 hrs by Annexin V-FITC staining based flow cytometry analysis (reference value: 0.013 %); assay type: functional
[5] = Toxicity in BALB/c mouse xenografted with human MOLM-13 cells assessed as lung damage at 10 mg/kg, IG qd administered 5 days a week and measured on day 9 in presence of vorinostat by H and E staining based analysis; assay type: organism-based; conditions: in vivo, po, 216 h, time 9 day
MOLM-13 [6] = test: Induction of apoptosis in human MOLM-13 cells assessed as late apoptotic cells at 0.1 uM incubated for 48 hrs by Annexin V-FITC staining based flow cytometry analysis (reference value: 1.40 %); assay type: functional
MOLM-13 [7] = test: Induction of cell cycle arrest in human MOLM-13 cells assessed as accumulation of cells at G2M phase at 0.05 uM measured for 48 hrs in presence of vorinostat by PI/RNase staining based flow cytometric analysis (reference value: 10.81%); assay type: functional
MOLM-13 [8] = test: Antiproliferative activity against human MOLM-13 cells incubated for 48 hrs; conditions: MOLM-13, 48 h
MOLM-13 [9] = test: Induction of cell cycle arrest in human MOLM-13 cells assessed as accumulation of cells at G0/G1 phase at 0.05 uM measured for 48 hrs by PI/RNase staining based flow cytometric analysis (reference value: 46.24 %); assay type: functional
KG-1 = test: Antiproliferative activity against human KG-1 cells incubated for 48 hrs; conditions: KG-1, 48 h
MOLM-13 [10] = test: Induction of cell cycle arrest in human MOLM-13 cells assessed as accumulation of cells at S-phase at 0.05 uM measured for 48 hrs by PI/RNase staining based flow cytometric analysis (reference value: 42.95%); assay type: functional
[11] = Toxicity in NOD/SCID mouse xenografted with human MOLM-13 cells assessed as increase in survival rate at 15 mg/kg, IG administered 5 days per week in presence of vorinostat by Kaplan Mayer survival analysis; assay type: organism-based; conditions: in vivo, po, 120 h, time 5 day
MOLM-13 [12] = test: Induction of apoptosis in human MOLM-13 cells assessed as early apoptotic cells at 0.1 uM incubated for 48 hrs in presence of vorinostat by Annexin V-FITC staining based flow cytometry analysis (reference value: 4.07 %); assay type: functional
MOLM-13 [13] = test: Induction of apoptosis in human MOLM-13 cells assessed as viable cells at 0.1 uM incubated for 48 hrs by Annexin V-FITC staining based flow cytometry analysis (reference value: 94.5 %); assay type: functional; conditions: Homo sapiens, MOLM-13, read-out: Activity
MOLM-13 [14] = test: Induction of cell cycle arrest in human MOLM-13 cells assessed as accumulation of cells at G2M phase at 0.05 uM measured for 48 hrs by PI/RNase staining based flow cytometric analysis (reference value: 10.81%); assay type: functional
MOLM-13 [15] = test: Induction of cell cycle arrest in human MOLM-13 cells assessed as accumulation of cells at S-phase at 0.05 uM measured for 48 hrs in presence of vorinostat by PI/RNase staining based flow cytometric analysis (reference value: 42.95%); assay type: functional
MOLM-13 [16] = test: Antitumor activity against human MOLM-13 cells xenografted BALB/c mouse assessed as tumor growth inhibition at 10 mg/kg, IG qd administered 5 days a week and measured on day 9 in presence of vorinostat; assay type: functional; conditions: MOLM-13, po, 216 h, time 9 day, read-out: TGI
MOLM-13 [17] = test: Induction of cell cycle arrest in human MOLM-13 cells assessed as accumulation of cells at G0/G1 phase at 0.05 uM measured for 48 hrs in presence of vorinostat by PI/RNase staining based flow cytometric analysis (reference value: 46.24 %); assay type: functional
THP-1 = test: Antiproliferative activity against human THP-1 cells incubated for 48 hrs; conditions: THP-1, 48 h
MOLM-13 [18] = test: Induction of apoptosis in human MOLM-13 cells assessed as early apoptotic cells at 0.1 uM incubated for 48 hrs by Annexin V-FITC staining based flow cytometry analysis (reference value: 4.07 %); assay type: functional
MOLM-13 [19] = test: Induction of apoptosis in human MOLM-13 cells assessed as late apoptotic cells at 0.1 uM incubated for 48 hrs in presence of vorinostat by Annexin V-FITC staining based flow cytometry analysis (reference value: 1.40 %); assay type: functional
[20] = Toxicity in BALB/c mouse xenografted with human MOLM-13 cells assessed as body weight loss at 10 mg/kg, IG qd administered 5 days a week and measured on day 9 in presence of vorinostat; assay type: organism-based; conditions: in vivo, po, 216 h, time 9 day
[21] = Cytotoxicity against HEK293T cells incubated for 48 hrs; assay type: toxicity, cell-based, HEK-293T; conditions: human
MOLM-13 [22] = test: Induction of apoptosis in human MOLM-13 cells assessed as necrotic cells at 0.1 uM incubated for 48 hrs in presence of vorinostat by Annexin V-FITC staining based flow cytometry analysis (reference value: 0.013 %); assay type: functional
Histone deacetylase = test: Inhibition of HDAC in human HeLa nuclear extract using Boc-Lys(Ac)-AMC as substrate incubated for 0.5 hrs by microplate reader analysis; assay type: cell-based
[23] = target: T2, Receptor-type tyrosine-protein kinase FLT3 (Homo sapiens, UniProt P36888); test: Inhibition of FLT3 (unknown origin) incubated for 40 mins in presence of ATP by kinase-glo plus luminescence assay
T2 sequence (P36888 whole entry): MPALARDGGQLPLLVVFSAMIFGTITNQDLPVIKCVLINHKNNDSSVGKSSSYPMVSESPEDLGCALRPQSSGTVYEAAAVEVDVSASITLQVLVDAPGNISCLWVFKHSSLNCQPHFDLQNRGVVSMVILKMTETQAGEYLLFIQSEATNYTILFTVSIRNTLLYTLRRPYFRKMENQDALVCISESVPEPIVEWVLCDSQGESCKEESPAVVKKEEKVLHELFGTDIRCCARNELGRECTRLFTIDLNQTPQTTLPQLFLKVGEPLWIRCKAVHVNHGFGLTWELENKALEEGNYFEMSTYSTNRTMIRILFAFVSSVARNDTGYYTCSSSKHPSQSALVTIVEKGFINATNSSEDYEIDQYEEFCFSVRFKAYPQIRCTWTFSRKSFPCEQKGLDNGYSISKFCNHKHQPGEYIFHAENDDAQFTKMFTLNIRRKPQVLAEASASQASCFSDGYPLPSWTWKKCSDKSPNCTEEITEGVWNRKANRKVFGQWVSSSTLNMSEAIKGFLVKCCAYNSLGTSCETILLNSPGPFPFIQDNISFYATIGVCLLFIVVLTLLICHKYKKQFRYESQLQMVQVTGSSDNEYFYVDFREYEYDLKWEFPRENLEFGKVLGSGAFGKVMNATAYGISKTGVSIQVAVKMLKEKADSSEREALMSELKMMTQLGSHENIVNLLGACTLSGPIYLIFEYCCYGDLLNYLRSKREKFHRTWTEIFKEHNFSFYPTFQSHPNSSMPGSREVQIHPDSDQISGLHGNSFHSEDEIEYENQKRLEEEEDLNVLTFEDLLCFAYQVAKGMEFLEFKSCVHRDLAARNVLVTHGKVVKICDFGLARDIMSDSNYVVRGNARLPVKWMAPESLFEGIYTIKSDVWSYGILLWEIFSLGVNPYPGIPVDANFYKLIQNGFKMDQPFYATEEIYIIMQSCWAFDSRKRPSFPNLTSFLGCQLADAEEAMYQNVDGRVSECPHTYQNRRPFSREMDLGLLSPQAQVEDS

[24] = target: T1, Histone deacetylase (Homo sapiens); test: Inhibition of HDAC in human HeLa nuclear extract using Boc-Lys(Ac)-AMC as substrate at 10000 nM incubated for 0.5 hrs by microplate reader analysis relative to control; assay type: cell-free

Compound: CCc1nc(C(N)=O)c(Nc2ccc(N3CCC(N4CCN(Cc5ccc(/C=C/C(=O)NO)cc5)CC4)CC3)c(OC)c2)nc1NC1CCOCC1
inhibition [1]: 28%

Compound: CCc1nc(C(N)=O)c(Nc2ccc(N3CCC(N4CCN(C)CC4)CC3)c(OC)c2)nc1NC1CCOCC1 [GILTERITINIB]
Activity (MOLM-13 [2]): Active
viability at 0.1 µM (MOLM-13 [3]): 46.8%
IC50 (K562): 0.99 µM
Activity (MOLM-13 [4]): 0.36%
Activity [5]: Non-Toxic
Activity (MOLM-13 [6]): 12.7%
Activity (MOLM-13 [7]): 7.24%
IC50 (MOLM-13 [8]): 0.012 µM
Activity (MOLM-13 [9]): 50%
IC50 (KG-1): 0.62 µM
Activity (MOLM-13 [10]): 44.47%
Activity [11]: Non-Toxic
Activity (MOLM-13 [12]): 35%
viability at 0.1 µM (MOLM-13 [13]): 53.5%
Activity (MOLM-13 [14]): 5.53%
Activity (MOLM-13 [15]): 28.26%
inhibition in vivo at 10 mg/kg (MOLM-13 [16]): 55.3%
Activity (MOLM-13 [17]): 64.51%
IC50 (THP-1): 0.85 µM
Activity (MOLM-13 [18]): 33.5%
Activity (MOLM-13 [19]): 17.4%
Activity [20]: Non-Toxic
IC50 at 48 h [21]: 0.97 µM
Activity (MOLM-13 [22]): 0.88%

Compound: CCc1nc(C(N)=O)c(Nc2ccc(N3CCC(N4CCN(Cc5ccc(C(=O)NO)cc5)CC4)CC3)c(OC)c2)nc1NC1CCOCC1
inhibition [1]: 18%

Compound: CCc1nc(C(N)=O)c(Nc2ccc(N3CCC(N4CCN(CCCCCC(=O)NO)CC4)CC3)c(OC)c2)nc1NC1CCOCC1
inhibition [1]: 36%

Compound: CCc1nc(C(N)=O)c(Nc2ccc(N3CCC(N4CCN(C(=O)CCCCCC(=O)NO)CC4)CC3)c(OC)c2)nc1NC1CCOCC1
inhibition [1]: 14%

Compound: CCc1nc(C(N)=O)c(Nc2ccc(N3CCC(N4CCN(CCCCCCCC(=O)NO)CC4)CC3)c(OC)c2)nc1NC1CCOCC1
inhibition [1]: 28%

Compound: CCc1nc(C(N)=O)c(Nc2ccc(N3CCC(N4CCN(C(=O)CCCC(=O)NO)CC4)CC3)c(OC)c2)nc1NC1CCOCC1
inhibition [1]: 27%

Compound: CCc1nc(C(N)=O)c(Nc2ccc(N3CCC(N4CCN(C(=O)CCCCC(=O)NO)CC4)CC3)c(OC)c2)nc1NC1CCOCC1
inhibition [1]: 10%

Compound: CCc1nc(C(N)=O)c(Nc2ccc(N3CCC(N4CCN(c5ncc(C(=O)NO)cn5)CC4)CC3)c(OC)c2)nc1NC1CCOCC1
inhibition [1]: 18.7%

Compound: CCc1nc(C(N)=O)c(Nc2ccc(N3CCN(Cc4ccc(/C=C/C(=O)NO)cc4)CC3)c(OC)c2)nc1NC1CCOCC1
IC50 (Histone deacetylase): 0.0937 µM

Compound: CCc1nc(C(N)=O)c(Nc2ccc(N3CCC(N4CCN(c5ncc(C(=O)Nc6ccccc6N)cn5)CC4)CC3)c(OC)c2)nc1NC1CCOCC1
inhibition [24]: 4.3%

Compound: CCc1nc(C(N)=O)c(Nc2ccc(N3CCC(N4CCN(Cc5ccc(C(=O)NCc6ccc(/C=C/C(=O)NO)cc6)cc5)CC4)CC3)c(OC)c2)nc1NC1CCOCC1
IC50 (Histone deacetylase): 0.063 µM

Compound: CCc1nc(C(N)=O)c(Nc2ccc(N3CCC(N4CCN(C(=O)CCCCCCC(=O)NO)CC4)CC3)c(OC)c2)nc1NC1CCOCC1
inhibition [1]: 27%

Compound: CCc1nc(C(N)=O)c(Nc2ccc(N3CCC(N4CCN(Cc5ccc(C(=O)Nc6ccccc6N)cc5)CC4)CC3)c(OC)c2)nc1NC1CCOCC1
inhibition [24]: 27.5%

Now from value to molecule, other results behind:

inhibition [1]: 25%
Compound: CCc1nc(C(N)=O)c(Nc2ccc(N3CCN(CCCCCC(=O)NO)CC3)c(OC)c2)nc1NC1CCOCC1

IC50 (Histone deacetylase): 0.2043 µM
Compound: CCc1nc(C(N)=O)c(Nc2ccc(N3CCN(C(=O)CCCCCC(=O)NO)CC3)c(OC)c2)nc1NC1CCOCC1

inhibition [1]: 3%
Compound: CCc1nc(C(N)=O)c(Nc2ccc(N3CCN(CCCC(=O)NO)CC3)c(OC)c2)nc1NC1CCOCC1

IC50 (K562): 1.06 µM
IC50 [23]: 0.0006 µM
IC50 (MOLM-13 [8]): 0.01 µM
IC50 (THP-1): 1.55 µM
IC50 (Histone deacetylase): 0.33 µM
Compound: CCc1nc(C(N)=O)c(Nc2ccc(N3CCN(CCCCCCC(=O)NO)CC3)c(OC)c2)nc1NC1CCOCC1
IC50 (KG-1): 1.44 µM

inhibition [1]: 1%
Compound: CCc1nc(C(N)=O)c(Nc2ccc(N3CCN(CCCCC(=O)NO)CC3)c(OC)c2)nc1NC1CCOCC1

IC50 (Histone deacetylase): 0.1473 µM
Compound: CCc1nc(C(N)=O)c(Nc2ccc(N3CCN(C(=O)CCCCCCC(=O)NO)CC3)c(OC)c2)nc1NC1CCOCC1

inhibition [1]: 10%
Compound: CCc1nc(C(N)=O)c(Nc2ccc(N3CCN(CCC(=O)NO)CC3)c(OC)c2)nc1NC1CCOCC1
